What was measured:
MTF-1 = MTF-1 binding to Cyclin D1 promoter, ChIP, HT-29; assay type: cell-based, human; details: HT-29, 16 hr, versus basal level
Procedure: To examine decreased MTF-1 binding to the promoter region of the MTF-1-targeted gene, cell-cycle regulatory gene Cyclin D1, HT-29 cells were treated with compound 3 for 16 hr and MTF-1 binding to Cyclin D1 promoter was assessed by chromatin immuno-precipitation assay (ChIP) (Active Motif, Carlsbad, Calif.). At the end of 16 hr treatment with compound 3, the cells were fixed with 1% formaldehyde to cross-link transcriptions factors and their target chromatin. Chromatin complexes were sheared and MTF-1-bound chromatin was pulled down by using antibody to MTF-1 (Santacruz Biotechnology Inc.). Cross-linking was reversed and the MTF-1-associated DNA was amplified by polymerase chain reaction using the primers encompassing −231 to −92 region of Cyclin D1 promoter. The 5′ primer (5′-CGGACTACAGGGGCAA-3′) [SEQ ID NO:1] and the 3′ primer (5′-GCTCCAGGACTTTGCA-3′) [SEQ ID NO:2] were synthesized at Invitrogen.

[1] = tested on: human colon adenocarcinoma cells HT-29; experiment: Colon carcinoma HT-29 xenograft model, tumour growth; assay type: in vivo, CD-1 female nude mice
Procedure: The ability of compound 3 to inhibit colon tumour growth in vivo was tested as follows. CD-1 female nude mice (7 mice per treatment group, 6-7 weeks) were injected intraperitoneally with human colon adenocarcinoma cells HT-29 cells (3×10^6 cells in 0.1 ml PBS). Treatment of the mice with vehicle or 50 mg/kg/d of compound 3 was initiated 5 days post-inoculation (size of tumours=20-40 mm^3) for 7-day cycles of five days followed by a 2 day break for 5 weeks. The size of the tumours was measured over the course of the experiment using calipers, and the weight of the tumours was measured after the animals were sacrificed.
The ability of compounds 3, 5, and 7 to inhibit colon carcinoma cell growth in vivo was tested in the mouse xenograft model as described in Example 26. […]
The tumor regression efficacy of compound 3 was assessed in compound 3-treated HT-29-transplanted athymic mice (FIG. 54A), and correlated with gene expressions of MTF-1, KLF4 and Cyclin D1 in HT-29 xenograft tissues (FIG. 54B). […] The tumor size was measured during the course of treatment using calipers (FIG. 54A). […] The tumor tissues were excised, frozen immediately and stored at −80° C. until RNA extraction and gene expression was analyzed by RT-PCR (FIG. 54B). […]

[2] = tested on: p21 (cyclin-dependent kinase inhibitor); experiment: p21 mRNA expression in HT-29 cells, real-time PCR; assay type: cell-based, human; details: HT-29, 1 μM, after 4 hr
Procedure: The effect of compounds of Formula I on the expression of genes regulated by KLF4 was determined as follows. Compound 3 was tested to determine its ability to increase the expression of the cell cycle regulator p21 (cyclin-dependent kinase inhibitor) in HT-29 colon carcinoma cells. […] HT-29 cells were incubated with DMSO (vehicle control), 35 μM ZnCl2, 1 μM or 4 μM TPEN, or 0.5 μM, 1 μM, 4 μM, or 7.5 μM compound 3 for 16 hours, and mRNA was extracted from the cells. The expression of p21 mRNA was analyzed by real-time polymerase chain reaction using the comparative CT method. This assay was carried out using methods described in Example 19.
The expressions of p21 gene and proteins were examined following treatment with compound 3. Gene expression of p21 in HT-29 cells treated with 1 μM compound 3 was determined at the indicated times as follows. Total RNA was extracted and gene expression level was determined by RT-PCR (FIG. 42A). The level of p21 protein in total cell lysate was measured by ELISA (FIG. 42B) as follows. HT-29 cells were treated with 1 μM compound 3 with and without 20 μM MG-132 (proteasome inhibitor) for indicated time.

`Cc1[nH]c2ccccc2c1-c1nc2c3cccnc3c3ncccc3c2[nH]1` [Compound 3] was tested, and the “MTF-1 binding to Cyclin D1 promoter” value (MTF-1) was “Decreased MTF-1 binding to Cyclin D1 promoter”, the “tumour growth (size and weight)” value ([1]; 50 mg/kg/d, five days on 2 off, 5 weeks) was “able to inhibit tumour growth” and the tumor size ([1]; 100 mg/kg i.p., 5 days then 10 days interval, 2 cycles) was “Significant reduction in tumor size”. The “p21 gene expression, change” value [2] was “Increased gene expression of p21”.

Reference: patent publication US8148392B2, “2-indolyl imidazo [4,5-d] phenanthroline derivatives and their use in the treatment of cancer” (Lorus Therapeutics Inc., priority 2005, dated 2012)
